Tests used:
[1] = system: NCI-H2030 human non-small cell lung cancer xenografts; test: Anti-tumor activity in mice bearing NCI-H2030 tumor xenografts; type: in vivo; details: for Response Rate % (Tumor Regression >−30%): NCI-H2030-xenografted mice, doses per Table A1; for tumor growth inhibition (TGI): NCI-H2030 xenografts, female athymic mice, n=3/group, doses and routes per Table A1
Description: (NCI-H2030 mutation profile: KRAS^G12C, STK11^E317*, TP53^G262V.) The KRAS G12C mutation, which is common in NSCLC, leads to constitutive activation of the tumor growth-promoting RAS/MAPK signaling pathway. STK11 is a negative regulator of mTOR signaling. The mTOR pathway is often activated in patients with KRAS mutation and contributes to adaptive resistance to KRAS inhibitors.
Female athymic mice were implanted with human NCI-H2030 NSCLC cells in both flanks.

[2] = system: NCI-H2122 human non-small cell lung cancer xenografts; test: Anti-tumor activity in mice bearing NCI-H2122 tumor xenografts; type: in vivo; details: for Response Rate % (Tumor Regression >−30%): NCI-H2122-xenografted mice, doses per Table D
Protocol: Next, a similar set of experiments was performed in mice bearing human NCI-H2122 tumor xenografts. NCI-H2122 is a human NSCLC […] cancer cell line that harbors KRAS^G12C and STK11 null (loss of function) mutations.

[3] = system: UMUC3 human bladder cancer xenografts; test: Anti-tumor activity in mice bearing UMUC3 tumor xenografts
Description: UMUC3 is a human transitional cell carcinoma (bladder cancer) cell line harboring KRAS^G12C and PTEN null mutations. PTEN is a negative regulator or mTOR activity (UMUC3 mutation profile: KRAS^G12C, PTEN^null, TP53^F113C, ATM^Q2800fs, CDKN2A^null, UGT2B17^null.)
Briefly, female athymic mice were implanted with NCI-H2122 cells in their right flanks. When tumor volume reached approximately 100-150 mm^3, animals were randomly divided into nine groups (n=6/group), and administered with saline (control), a single agent drug, or a drug combination shown in Table F below according to the administration routes, dosages and administration frequencies shown in Table F below.

In the case of `CO[C@H]1C[C@@H]2CC[C@@H](C)[C@@](O)(O2)C(=O)C(=O)N2CCCC[C@H]2C(=O)O[C@H]([C@H](C)C[C@@H]2CC[C@@H](OCCO)[C@H](OC)C2)CC(=O)[C@H](C)/C=C(\C)[C@@H](O)[C@@H](OC)C(=O)[C@H](C)C[C@H](C)/C=C/C=C/C=C/1C` [everolimus], the “Response Rate % (Tumor Regression >−30%)” value [1] is reported as 0%, the “tumor growth inhibition (TGI)” value [1] is reported as 22% and the “Response Rate % (Tumor Regression >−30%)” value [2] is reported as 10%.
In the case of `C=CC(=O)N1CCN(c2nc(=O)n(-c3c(C)ccnc3C(C)C)c3nc(-c4c(O)cccc4F)c(F)cc23)[C@@H](C)C1` (atropisomer, axis not shown; (M)) [sotorasib, 6-Fluoro-7-(2-fluoro-6-hydroxyphenyl)-(1M)-1-[4-methyl-2-(propan-2-yl)pyridin-3-yl]-4-[(2S)-2-methyl-4-(prop-2-enoyl)piperazin-1-yl]pyrido[2,3-d]pyrimidin-2(1H)-one], the “Response Rate % (Tumor Regression >−30%)” value [1] is reported as 0%, the “tumor growth inhibition (TGI)” value [1] is reported as 20% and the “Response Rate % (Tumor Regression >−30%)” value [2] is reported as 0%. The “tumor growth inhibition (TGI)” value ([2]; NCI-H2122 xenografts, female athymic mice, n=5/group, doses and routes per Table D) was 79%, the “mice tumor-free during the study” value ([3]; UMUC3-xenografted mice, n=6/group) was 0/6 and the “mice surviving to the end of the study (Day 42)” value ([3]; UMUC3-xenografted mice, n=6/group, doses per Table F) was 0/6. For the same molecule, the “Response Rate % (Tumor Regression >−30%)” value ([3]; UMUC3-xenografted mice, doses per Table F) was 0% and the “tumor growth inhibition (TGI)” value ([3]; UMUC3 xenografts, female athymic mice, n=6/group, doses and routes per Table F) was 100%.
